The text below walks through data of patent US6452001B2, “Diazapane derivatives useful as antagonists of neurokinin 1 receptor and methods for their formation” (Hoffmann-La Roche Inc., priority 2000, dated 2002).

The target in this test is T1, human NK1 receptor (Homo sapiens, UniProt P25103).
T1 construct: expressed in transfected cells; host or cells: CHO cells infected using the Semliki virus expression system; membrane suspension
Description: NK1 receptor binding assay, [3H]substance P displacement. The note with it: affinity to the NK-1 receptor; human NK1 receptors in CHO cells, [3H]substance P 0.6 nM. The procedure: The affinity of test compounds for the NK1 receptor was evaluated at human NK1 receptors in CHO cells infected with the human NK1 receptor (using the Semliki virus expression system) and radiolabelled with [^3H]substance P (final concentration 0.6 nM). Binding assays were performed in HEPES buffer (50 mM, pH 7.4) containing BSA (0.04 %) leupeptin (8 μg/ml), MnCl2 (3 mM) and phosphoramidon (2 μM). Binding assays consisted of 250 μl of membrane suspension (1.25×10^5 cells/assay tube), […] of buffer of displacing agent and 125 μl of [^3H]substance P. Displacement curves were determined with at least seven concentrations of the compound. The assay tubes were incubated for 60 min at room temperature after which time the tube contents were rapidly filtered under vacuum through GF/C filters presoaked for 60 min with PEI (0.3 %) with 2×2 ml washed of HEPES buffer (50 mM, pH 7.4). The radioactivity retained on the filters was measured by scintillation counting. All assays were performed in triplicate in at least 2 separate experiments.

Structures are written as SMILES. Counter-ions that a name gives are not always drawn.

T1 sequence (P25103 whole entry): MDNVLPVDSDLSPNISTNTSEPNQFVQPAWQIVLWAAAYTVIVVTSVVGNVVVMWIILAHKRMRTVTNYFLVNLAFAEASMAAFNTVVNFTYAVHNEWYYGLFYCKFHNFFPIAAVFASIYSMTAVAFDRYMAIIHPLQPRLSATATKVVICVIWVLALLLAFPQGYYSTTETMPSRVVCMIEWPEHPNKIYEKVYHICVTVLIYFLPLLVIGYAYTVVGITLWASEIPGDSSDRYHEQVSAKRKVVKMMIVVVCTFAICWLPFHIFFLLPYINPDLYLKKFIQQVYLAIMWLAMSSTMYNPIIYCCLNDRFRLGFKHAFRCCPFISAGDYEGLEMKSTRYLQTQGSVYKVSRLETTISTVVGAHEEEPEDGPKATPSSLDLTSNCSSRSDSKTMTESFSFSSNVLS

One may read the Ki as a dissociation constant, usually derived from enzyme kinetics or from competition with a known ligand. Low values mean a stronger hold on the target, high ones a looser hold on the target. Compound `CN(C)Cc1nnc2n1C(Cc1ccc(Cl)c(Cl)c1)C(=O)N(Cc1cc(C(F)(F)F)cc(C(F)(F)F)c1)CC2` (racemic) [Example 23, (RS)-6-(3,5-Bis-trifluoromethyl-benzyl)-4-(3,4-dichloro-benzyl)-3-dimethylaminomethyl-7,8-dihydro-6H-1,2,3a,6-tetraaza-azulen-5-one] had a Ki of 4.37 nM.

`Cc1ccc2ccccc2c1CN1CCC(=O)N[C@@H](Cc2ccc(Cl)c(Cl)c2)C1=O` [Example 16, (3S)-3-(3,4-Dichloro-benzyl)-1-(2-methyl-naphthalen-1-yl-methyl)-[1,4]diazepane-2,5-dione] had a Ki of 3.8 nM. The figure for `CCCN=C1CCN(Cc2cc(C(F)(F)F)cc(C(F)(F)F)c2)C(=O)C(Cc2ccc(Cl)c(Cl)c2)N1` (racemic) [Example 26, (RS)-1-(3,5-Bis-trifluoromethyl-benzyl)-3-(3,4-dichloro-benzyl)-5-propylimino-[1,4]diazepan-2-one hydrochloride] is 7.08 nM.

`O=C1C(Cc2ccc(Cl)c(Cl)c2)n2cnnc2CCN1Cc1cc(C(F)(F)F)cc(C(F)(F)F)c1` (racemic) [Example 20, (RS)-6-(3,5-Bis-trifluoromethyl-benzyl)-4-(3,4-dichloro-benzyl)-7,8-dihydro-6H-1,2,3a,6-tetraaza-azulen-5-one] showed a Ki of 2.45 nM. Compared with the last compound, the Ki is about 2.9-fold lower.

Consider `CN1CCCCC1c1nnc2n1C(Cc1ccc(Cl)c(Cl)c1)C(=O)N(Cc1cc(C(F)(F)F)cc(C(F)(F)F)c1)CC2` (racemic) [Example 24, (RS)-6-(3,5-Bis-trifluoromethyl-benzyl)-4-(3,4-dichloro-benzyl)-3-(1-methyl-piperidin-2-yl)-7,8-dihydro-6H-1,2,3a,6-tetraaza-azulen-5-one], for which the affinity, expressed as Ki, was 5.62 nM.

In turn, `O=C1C(Cc2ccc(Cl)c(Cl)c2)n2c(CCN3CCOCC3)nnc2CCN1Cc1cc(C(F)(F)F)cc(C(F)(F)F)c1` (racemic) [Example 21, (RS)-6-(3,5-Bis-trifluoromethyl-benzyl)-4-(3,4-dichloro-benzyl)-3-(2-morpholin-4-yl-ethyl)-7,8-dihydro-6H-1,2,3a,6-tetraaza-azulen-5-one] showed a Ki of 3.89 nM. The figure for `COc1ccc2ccccc2c1CN1CCc2nncn2[C@@H](Cc2ccc(Cl)c(Cl)c2)C1=O` [Example 19, (4S)-4-(3,4-Dichloro-benzyl)-6-(2-methoxy-naphthalen-1-yl-methyl)-7,8-dihydro-6H-1,2,3a,6-tetraaza-azulen-5-one] is 1.74 nM. On to `CCOc1ccc2ccccc2c1CN1CCC(=O)NC(Cc2ccc(Cl)c(Cl)c2)C1=O` (racemic) [Example 17, (RS)-3-(3,4-Dichloro-benzyl)-1-(2-ethoxy-naphthalen-1-yl-methyl)-[1,4]diazepane-2,5-dione], for which the affinity, expressed as Ki, was 5.37 nM. The value for `COc1ccc2ccccc2c1CN1CCC(=O)N[C@@H](Cc2ccc(Cl)c(Cl)c2)C1=O` [Example 15, (3S)-3-(3,4-Dichloro-benzyl)-1-(2-methoxy-naphthalen-1-yl-methyl)-[1,4]diazepane-2,5-dione] was 3.24 nM.
